Test results taken from publication PMC10447463, “Data-mining unveils structure–property–activity correlation of viral infectivity enhancing self-assembling peptides” (Nature Communications, 2023).
Read-outs that look alike come from different tables or passages of the source.

Key:
[1] = assay type: physicochemical; set-up: key to Fibril / Fibril Formation / TEM 2cat / Fibril: 1 = fibrils present; 0 non-fibrillar structures; settings: for Fibril / Fibril Formation: TEM, 1 mg/mL, uranyl acetate stain, qualitative
[2] = assay type: physicochemical; settings: for ThT Cat. / ThT-Fluorescence (categorical): ThT-active if fluorescence at least twice the control
Method in brief: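 Fibrils (1 mg/mL solution) were mixed with 50 µM ThT in PBS for 15 min at RT, and fluorescence was read at λex 440/λem 488 nm against a PBS blank, as a triplicate mean ± SD. Zeta potential came from electrophoretic mobility (Smoluchowski) after 1 d aggregation at 1 mg/mL in PBS pH 7.4, diluted into 1 mM KCl.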

[3] = ThT fluorescence relative to blank, blank = 42.1851851851852
[4] = ThT fluorescence relative to blank (42.1851851851852 a.u.)
[5] = relative to blank 42.1851851851852 a.u.

## KAKQAANMWQ [JG6]
[1]
  TEM: 1= fibrils, 0= aggregates (micelle), 0.5 = aggregates and fibrils, -1 = nothing obersved, STD prep: 0.5
[2]; [3]
  Tht rel to blank (42.1851851851852): 1.208
[2]; category 1/0
  Tht category (> 1.5 to blank = +): 0 (ThT-inactive (N-Fold <2))

## KVKVQVVV [TG8]
[1]
  TEM: 1= fibrils, 0= aggregates (micelle), 0.5 = aggregates and fibrils, -1 = nothing obersved, STD prep: 1
[2]; [4]
  Tht rel to blank (42.1851851851852): 0.8863
[2]; [3]
  Tht rel to blank (42.1851851851852): 0.8863
[2]; category 1/0
  Tht category (> 1.5 to blank = +): 0 (ThT-inactive (N-Fold <2))

## NMWQKIKQII [JG8]
[1]; FigS26
  TEM: 1= fibrils, 0= aggregates (micelle), 0.5 = aggregates and fibrils, -1 = nothing obersved, STD prep: 0
[2]; FigS26
  Tht category (> 1.5 to blank = +): 0 (Tht category (> 1.5 to blank = +))

## KFQFNMW
[1]
  Fibril / Fibril Formation: 1
[2]
  ThT Cat. / ThT-Fluorescence (categorical): 0 (ThT-inactive (N-Fold <2))

## RLRLTLC [CN13]
[1]
  TEM: 1= fibrils, 0= aggregates (micelle), 0.5 = aggregates and fibrils, -1 = nothing obersved, STD prep: 1
[2]; [3]
  Tht rel to blank (42.1851851851852): 1.899
[2]; category 1/0
  Tht category (> 1.5 to blank = +): 0 (ThT-inactive (N-Fold <2))

## IIIQGK [reference compound]
[1]
  Fibril / Fibril Formation: 0
[2]
  ThT Cat. / ThT-Fluorescence (categorical): 0 (ThT-inactive (N-Fold <2))

## KIKIKIKI [TM13]
[1]
  TEM: 1= fibrils, 0= aggregates (micelle), 0.5 = aggregates and fibrils, -1 = nothing obersved, STD prep: 0
[2]; category 1/0
  Tht category (> 1.5 to blank = +): 1 (ThT. Cat is 1, if Rel. ThT >2)
[2]; [5]
  Tht rel to blank (42.1851851851852): 3.325

## RGDKIKIQINM [MG8a / CN17]
[1]
  TEM: 1= fibrils, 0= aggregates (micelle), 0.5 = aggregates and fibrils, -1 = nothing obersved, STD prep: 1
[2]; [4]
  Tht rel to blank (42.1851851851852): 9.126
[2]; [3]
  Tht rel to blank (42.1851851851852): 9.126
[2]; category 1/0
  Tht category (> 1.5 to blank = +): 1 (ThT. Cat is 1, if Rel. ThT >2)
[2]; [5]
  Tht rel to blank (42.1851851851852): 9.126

## HHHHKAKAKAKAYYYY [TM10]
[1]
  TEM: 1= fibrils, 0= aggregates (micelle), 0.5 = aggregates and fibrils, -1 = nothing obersved, STD prep: 0
[2]; [3]
  Tht rel to blank (42.1851851851852): 1.39
[2]; category 1/0
  Tht category (> 1.5 to blank = +): 0 (ThT-inactive (N-Fold <2))

## LASLIYR [reference compound]
[1]
  Fibril / Fibril Formation: 0
[2]
  ThT Cat. / ThT-Fluorescence (categorical): 0 (ThT-inactive (N-Fold <2))

## CKFKFPF
[1]
  Fibril / Fibril Formation: 0
[2]
  ThT Cat. / ThT-Fluorescence (categorical): 0 (ThT-inactive (N-Fold <2))

## CEFEFQF [KB12]
[1]
  TEM: 1= fibrils, 0= aggregates (micelle), 0.5 = aggregates and fibrils, -1 = nothing obersved, STD prep: 0
[2]; [4]
  Tht rel to blank (42.1851851851852): 2.788

## KAQCTLP
[1]
  Fibril / Fibril Formation: 0
[2]
  ThT Cat. / ThT-Fluorescence (categorical): 0 (ThT-inactive (N-Fold <2))

## IKFLSVN [reference compound]
[1]
  Fibril / Fibril Formation: 1
[2]
  ThT Cat. / ThT-Fluorescence (categorical): 0 (ThT-inactive (N-Fold <2))

## KIKIQIII [TG7]
[1]
  TEM: 1= fibrils, 0= aggregates (micelle), 0.5 = aggregates and fibrils, -1 = nothing obersved, STD prep: 1
[2]; [4]
  Tht rel to blank (42.1851851851852): 2.287
[2]; [3]
  Tht rel to blank (42.1851851851852): 2.287
[2]; category 1/0
  Tht category (> 1.5 to blank = +): 1 (ThT. Cat is 1, if Rel. ThT >2)
[2]; [5]
  Tht rel to blank (42.1851851851852): 2.287

## RGEKIKIQINM [CN18]
[1]
  TEM: 1= fibrils, 0= aggregates (micelle), 0.5 = aggregates and fibrils, -1 = nothing obersved, STD prep: 1
[2]; [3]
  Tht rel to blank (42.1851851851852): 3.423
[2]; category 1/0
  Tht category (> 1.5 to blank = +): 1 (ThT. Cat is 1, if Rel. ThT >2)

## KIKQIIN [JGA3]
[1]
  TEM: 1= fibrils, 0= aggregates (micelle), 0.5 = aggregates and fibrils, -1 = nothing obersved, STD prep: 0.5
[2]; [4]
  Tht rel to blank (42.1851851851852): 1.148

## KIKIQINMWA [JR1]
[1]; FigS26
  TEM: 1= fibrils, 0= aggregates (micelle), 0.5 = aggregates and fibrils, -1 = nothing obersved, STD prep: 1
[2]; FigS26
  Tht category (> 1.5 to blank = +): 0 (Tht category (> 1.5 to blank = +))

## KLKLTLT
[1]
  Fibril / Fibril Formation: 1
[2]
  ThT Cat. / ThT-Fluorescence (categorical): 1 (ThT. Cat is 1, if Rel. ThT >2)

## KIKIQINMWQRGD [VH17-II]
[1]
  TEM: 1= fibrils, 0= aggregates (micelle), 0.5 = aggregates and fibrils, -1 = nothing obersved, STD prep: 0
[2]; FigS26
  Tht category (> 1.5 to blank = +): 0 (Tht category (> 1.5 to blank = +))
[2]; category 1/0
  Tht category (> 1.5 to blank = +): 0 (ThT-inactive (N-Fold <2))
[2]; [5]
  Tht rel to blank (42.1851851851852): 1.548

## RVRVTVT
[1]
  Fibril / Fibril Formation: 0
[2]
  ThT Cat. / ThT-Fluorescence (categorical): 0 (ThT-inactive (N-Fold <2))

## KYFIL [reference compound]
[1]
  Fibril / Fibril Formation: 0
[2]
  ThT Cat. / ThT-Fluorescence (categorical): 0 (ThT-inactive (N-Fold <2))

## GYVIIK [reference compound]
[1]
  Fibril / Fibril Formation: 0
[2]
  ThT Cat. / ThT-Fluorescence (categorical): 0 (ThT-inactive (N-Fold <2))

## NMWQKFKFQF [JG11]
[1]; FigS26
  TEM: 1= fibrils, 0= aggregates (micelle), 0.5 = aggregates and fibrils, -1 = nothing obersved, STD prep: 1
[2]; FigS26
  Tht category (> 1.5 to blank = +): 0 (Tht category (> 1.5 to blank = +))

## KIKIQINMWWWQ [VH12]
[1]
  TEM: 1= fibrils, 0= aggregates (micelle), 0.5 = aggregates and fibrils, -1 = nothing obersved, STD prep: 0.5
[2]; category 1/0
  Tht category (> 1.5 to blank = +): 0 (ThT-inactive (N-Fold <2))
[2]; [5]
  Tht rel to blank (42.1851851851852): 1.301

## KAKLTCT
[1]
  Fibril / Fibril Formation: 0
[2]
  ThT Cat. / ThT-Fluorescence (categorical): 0 (ThT-inactive (N-Fold <2))

## KIKIWIW
[1]
  Fibril / Fibril Formation: 1
[2]
  ThT Cat. / ThT-Fluorescence (categorical): 0 (ThT-inactive (N-Fold <2))

## RGECKFKFQF [CN16]
[1]
  TEM: 1= fibrils, 0= aggregates (micelle), 0.5 = aggregates and fibrils, -1 = nothing obersved, STD prep: 1
[2]; [3]
  Tht rel to blank (42.1851851851852): 2.392
[2]; category 1/0
  Tht category (> 1.5 to blank = +): 1 (ThT. Cat is 1, if Rel. ThT >2)

## HLHLPLL [CN14]
[1]
  TEM: 1= fibrils, 0= aggregates (micelle), 0.5 = aggregates and fibrils, -1 = nothing obersved, STD prep: 0.5
[2]; [3]
  Tht rel to blank (42.1851851851852): 1.069
[2]; category 1/0
  Tht category (> 1.5 to blank = +): 0 (ThT-inactive (N-Fold <2))

## RGDKIKIQINMC [psis29]
[1]; FigS26
  TEM: 1= fibrils, 0= aggregates (micelle), 0.5 = aggregates and fibrils, -1 = nothing obersved, STD prep: 1
[1]
  TEM: 1= fibrils, 0= aggregates (micelle), 0.5 = aggregates and fibrils, -1 = nothing obersved, STD prep: 1
[2]; [4]
  Tht rel to blank (42.1851851851852): 1.396
[2]; category 1/0
  Tht category (> 1.5 to blank = +): 0 (ThT-inactive (N-Fold <2))
[2]; [5]
  Tht rel to blank (42.1851851851852): 1.396

## KIKIQIN [JGB3]
[1]
  TEM: 1= fibrils, 0= aggregates (micelle), 0.5 = aggregates and fibrils, -1 = nothing obersved, STD prep: 1
[2]; category 1/0
  Tht category (> 1.5 to blank = +): 0 (ThT-inactive (N-Fold <2))
[2]; [5]
  Tht rel to blank (42.1851851851852): 1.784

## HHHHKAKAKAKAWWWW [TM8]
[1]
  TEM: 1= fibrils, 0= aggregates (micelle), 0.5 = aggregates and fibrils, -1 = nothing obersved, STD prep: 0.5
[2]; [3]
  Tht rel to blank (42.1851851851852): 3.672
[2]; category 1/0
  Tht category (> 1.5 to blank = +): 1 (ThT. Cat is 1, if Rel. ThT >2)

## CKIKIWIW
[1]
  Fibril / Fibril Formation: 1
[2]
  ThT Cat. / ThT-Fluorescence (categorical): 1 (ThT. Cat is 1, if Rel. ThT >2)

## HHHHKIKIQINMYYYY [TM16]
[1]
  TEM: 1= fibrils, 0= aggregates (micelle), 0.5 = aggregates and fibrils, -1 = nothing obersved, STD prep: 1
[2]; [3]
  Tht rel to blank (42.1851851851852): 12.17
[2]; category 1/0
  Tht category (> 1.5 to blank = +): 1 (ThT. Cat is 1, if Rel. ThT >2)

## NMWQKAKAQA [JG10]
[1]; FigS26
  TEM: 1= fibrils, 0= aggregates (micelle), 0.5 = aggregates and fibrils, -1 = nothing obersved, STD prep: 1
[2]; FigS26
  Tht category (> 1.5 to blank = +): 1 (Tht category (> 1.5 to blank = +))

## KLKLKLQL [TG16]
[1]
  TEM: 1= fibrils, 0= aggregates (micelle), 0.5 = aggregates and fibrils, -1 = nothing obersved, STD prep: 1
[2]; [3]
  Tht rel to blank (42.1851851851852): 1.572
[2]; category 1/0
  Tht category (> 1.5 to blank = +): 0 (ThT-inactive (N-Fold <2))

## CRLRVGVS
[1]
  Fibril / Fibril Formation: 0
[2]
  ThT Cat. / ThT-Fluorescence (categorical): 0 (ThT-inactive (N-Fold <2))

## RFWFWFW
[1]
  Fibril / Fibril Formation: 0
[2]
  ThT Cat. / ThT-Fluorescence (categorical): 1 (ThT. Cat is 1, if Rel. ThT >2)

## RATVYV [reference compound]
[1]
  Fibril / Fibril Formation: 1
[2]
  ThT Cat. / ThT-Fluorescence (categorical): 0 (ThT-inactive (N-Fold <2))

## RVHLGLG
[1]
  Fibril / Fibril Formation: 1
[2]
  ThT Cat. / ThT-Fluorescence (categorical): 0 (ThT-inactive (N-Fold <2))

## KVKVKVQV [JG14 / TG14]
[1]
  TEM: 1= fibrils, 0= aggregates (micelle), 0.5 = aggregates and fibrils, -1 = nothing obersved, STD prep: 0.5
[2]; [3]
  Tht rel to blank (42.1851851851852): 5.801
[2]; category 1/0
  Tht category (> 1.5 to blank = +): 1 (ThT. Cat is 1, if Rel. ThT >2)

## CKIKIQIII [AR0 / F19]
[1]
  TEM: 1= fibrils, 0= aggregates (micelle), 0.5 = aggregates and fibrils, -1 = nothing obersved, STD prep: 1
[2]; category 1/0
  Tht category (> 1.5 to blank = +): 1 (ThT. Cat is 1, if Rel. ThT >2)
[2]; [5]
  Tht rel to blank (42.1851851851852): 4.14

## NKGAII [reference compound]
[1]
  Fibril / Fibril Formation: 0
[2]
  ThT Cat. / ThT-Fluorescence (categorical): 0 (ThT-inactive (N-Fold <2))

## KIKIQINAWQ [JR3-II]
[1]; FigS26
  TEM: 1= fibrils, 0= aggregates (micelle), 0.5 = aggregates and fibrils, -1 = nothing obersved, STD prep: 1
[2]; FigS26
  Tht category (> 1.5 to blank = +): 1 (Tht category (> 1.5 to blank = +))
